Laboratory results taken from paper PMC6977461 (Chemical Science, 2019).

Molecular target: T1, mouse GLP-1 receptor (Mus musculus, UniProt O35659)
T1 construct: βTC6 cells which express GLP-1R endogenously; host or cells: βTC6 cells
T1 sequence (O35659 22-463): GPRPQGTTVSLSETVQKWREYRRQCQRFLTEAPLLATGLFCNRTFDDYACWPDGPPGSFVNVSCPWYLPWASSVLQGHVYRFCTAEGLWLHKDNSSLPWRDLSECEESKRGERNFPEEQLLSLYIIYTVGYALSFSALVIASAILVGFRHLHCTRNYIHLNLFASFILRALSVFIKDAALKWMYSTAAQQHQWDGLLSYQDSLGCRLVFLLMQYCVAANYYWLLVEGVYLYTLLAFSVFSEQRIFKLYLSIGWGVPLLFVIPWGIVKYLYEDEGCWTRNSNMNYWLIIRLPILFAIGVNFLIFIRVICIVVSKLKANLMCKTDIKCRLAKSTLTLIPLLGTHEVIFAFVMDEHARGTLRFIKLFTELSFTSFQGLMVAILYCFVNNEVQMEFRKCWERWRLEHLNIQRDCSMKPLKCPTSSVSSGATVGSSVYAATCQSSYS
Experiment: cAMP production in βTC6 cells expressing GLP-1R endogenously (Method C2)
Format: cell-based
Details: for Potency (%), Table S1: from EC50 in βTC6 cAMP assay, footnote: compare to GLP-1-NH2 (2); for EC50: read-out: EC50 (GLP-1R potency), Table S1
Procedure:  HEK-293T cells (Multispan inc., lot#.DC1267-062017) were suspended in cell culture media
(DMEM 1X + GlutaMAX (Gibco 31966-021)) complemented with FBS 10% (Sigma Aldrich
 βTC6 cells were suspended in HBSS buffer (Invitrogen) complemented with 20 mM HEPES (pH
In vitro pharmacology on HEK-293T cells (EC50: Method C1)
cells (Multispan inc., lot#.DC1267-062017) was determined by measuring their effects on cAMP
production using the HTRF detection method (performed by UREkA SARL). The cells were distributed
in 384-well microplates at a density of 1.0x10^4 cells/well. Stock solutions of the test compounds or the
reference agonist were prepared at a concentration of 1 mM in DMSO. Then, compounds to be tested
were diluted in cell culture media and transferred to the plate containing the cells to reach final assay

SMILES	Potency (%), Table S1 [%]	EC50 [µM]
CC[C@H](C)[C@H](NC(=O)[C@H](Cc1ccccc1)NC(=O)[C@H](CCC(=O)O)NC(=O)[C@H](CCCCN)NC(=O)[C@H](C)NC(=O)[C@H](C)NC(=O)[C@H](CCC(N)=O)NC(=O)CNC(=O)[C@H](CCC(=O)O)NC(=O)[C@H](CC(C)C)NC(=O)[C@H](Cc1ccc(O)cc1)NC(=O)[C@H](CO)NC(=O)[C@H](CO)NC(=O)[C@@H](NC(=O)[C@H](CC(=O)O)NC(=O)[C@H](CO)NC(=O)[C@@H](NC(=O)[C@H](Cc1ccccc1)NC(=O)[C@@H](NC(=O)CNC(=O)[C@H](CCC(=O)O)NC(=O)NC[C@H](CO)NC(=O)[C@@H](N)Cc1c[nH]cn1)[C@@H](C)O)[C@@H](C)O)C(C)C)C(=O)N[C@@H](C)C(=O)N[C@@H](Cc1c[nH]c2ccccc12)C(=O)N[C@@H](CC(C)C)C(=O)N[C@H](C(=O)N[C@@H](CCCCN)C(=O)NCC(=O)N[C@@H](CCCNC(=N)N)C(=O)NCC(N)=O)C(C)C [S1]	8	
CC[C@H](C)[C@H](NC(=O)[C@H](Cc1ccccc1)NC(=O)[C@H](CCC(=O)O)NC(=O)[C@H](CCCCN)NC(=O)[C@H](C)NC(=O)[C@H](C)NC(=O)[C@H](CCC(N)=O)NC(=O)CNC(=O)[C@H](CCC(=O)O)NC(=O)[C@H](CC(C)C)NC(=O)[C@H](Cc1ccc(O)cc1)NC(=O)[C@H](CO)NC(=O)[C@H](CO)NC(=O)[C@@H](NC(=O)[C@H](CC(=O)O)NC(=O)[C@H](CO)NC(=O)[C@@H](NC(=O)[C@H](Cc1ccccc1)NC(=O)[C@@H](NC(=O)CNC(=O)[C@H](CCC(=O)O)NC(=O)NC[C@H](CCCNC(=N)N)NC(=O)[C@@H](N)Cc1c[nH]cn1)[C@@H](C)O)[C@@H](C)O)C(C)C)C(=O)N[C@@H](C)C(=O)N[C@@H](Cc1c[nH]c2ccccc12)C(=O)N[C@@H](CC(C)C)C(=O)N[C@H](C(=O)N[C@@H](CCCCN)C(=O)NCC(=O)N[C@@H](CCCNC(=N)N)C(=O)NCC(N)=O)C(C)C [S2]	< 0.01	> 10
CC[C@H](C)[C@H](NC(=O)[C@H](Cc1ccccc1)NC(=O)[C@H](CCC(=O)O)NC(=O)[C@H](CCCCN)NC(=O)[C@H](C)NC(=O)[C@H](C)NC(=O)[C@H](CCC(N)=O)NC(=O)CNC(=O)[C@H](CCC(=O)O)NC(=O)[C@H](CC(C)C)NC(=O)[C@H](Cc1ccc(O)cc1)NC(=O)[C@H](CO)NC(=O)[C@H](CO)NC(=O)[C@@H](NC(=O)[C@H](CC(=O)O)NC(=O)[C@H](CO)NC(=O)[C@@H](NC(=O)[C@H](Cc1ccccc1)NC(=O)[C@@H](NC(=O)CNC(=O)[C@H](CCC(=O)O)NC(=O)NC[C@H](CS)NC(=O)[C@@H](N)Cc1c[nH]cn1)[C@@H](C)O)[C@@H](C)O)C(C)C)C(=O)N[C@@H](C)C(=O)N[C@@H](Cc1c[nH]c2ccccc12)C(=O)N[C@@H](CC(C)C)C(=O)N[C@H](C(=O)N[C@@H](CCCCN)C(=O)NCC(=O)N[C@@H](CCCNC(=N)N)C(=O)NCC(N)=O)C(C)C [S3]	0	0.065
CC[C@H](C)[C@H](NC(=O)[C@H](Cc1ccccc1)NC(=O)[C@H](CCC(=O)O)NC(=O)[C@H](CCCCN)NC(=O)[C@H](C)NC(=O)[C@H](C)NC(=O)[C@H](CCC(N)=O)NC(=O)CNC(=O)[C@H](CCC(=O)O)NC(=O)[C@H](CC(C)C)NC(=O)[C@H](Cc1ccc(O)cc1)NC(=O)[C@H](CO)NC(=O)[C@H](CO)NC(=O)[C@@H](NC(=O)[C@H](CC(=O)O)NC(=O)[C@H](CO)NC(=O)[C@@H](NC(=O)[C@H](Cc1ccccc1)NC(=O)[C@@H](NC(=O)CNC(=O)[C@H](CCC(=O)O)NC(=O)NC[C@H](CCC(N)=O)NC(=O)[C@@H](N)Cc1c[nH]cn1)[C@@H](C)O)[C@@H](C)O)C(C)C)C(=O)N[C@@H](C)C(=O)N[C@@H](Cc1c[nH]c2ccccc12)C(=O)N[C@@H](CC(C)C)C(=O)N[C@H](C(=O)N[C@@H](CCCCN)C(=O)NCC(=O)N[C@@H](CCCNC(=N)N)C(=O)NCC(N)=O)C(C)C [S4]	< 0.01	> 10
